Reference: ChEMBL document CHEMBL1275577, “Study of the in vitro activities of rifaximin and comparator agents against 536 anaerobic intestinal bacteria from the perspective of potential utility in pathology involving bowel flora” (Antimicrob Agents Chemother, 2009)

Assays:
Bifidobacterium dentium = test: Antimicrobial activity against Bifidobacterium dentium by Wadsworth agar dilution method in presence of beta-lactamase inhibitor Sulbactam; format: functional
Prevotella bivia = test: Antimicrobial activity against Prevotella bivia by Wadsworth agar dilution method in presence of beta-lactamase inhibitor Sulbactam; format: functional
Clostridium sp. = test: Antimicrobial activity against Clostridium sp. by Wadsworth agar dilution method in presence of beta-lactamase inhibitor Sulbactam; format: functional
Actinomyces viscosus = test: Antimicrobial activity against Actinomyces viscosus by Wadsworth agar dilution method in presence of beta-lactamase inhibitor Sulbactam; format: functional
[1] = test system: Peptostreptococcus anaerobius; test: Antimicrobial activity against Peptostreptococcus anaerobius by Wadsworth agar dilution method in presence of beta-lactamase inhibitor Sulbactam; format: functional
Anaerococcus prevotii = test: Antimicrobial activity against Anaerococcus prevotii by Wadsworth agar dilution method in presence of beta-lactamase inhibitor Sulbactam; format: functional
[2] = test system: Enterocloster clostridioformis; test: Antimicrobial activity against Clostridium clostridioforme by Wadsworth agar dilution method in presence of beta-lactamase inhibitor Sulbactam; format: functional
Bifidobacterium breve = test: Antimicrobial activity against Bifidobacterium breve by Wadsworth agar dilution method in presence of beta-lactamase inhibitor Sulbactam; format: functional
[3] = test system: Lactobacillus acidophilus; test: Antimicrobial activity against Lactobacillus acidophilus by Wadsworth agar dilution method in presence of beta-lactamase inhibitor Sulbactam; format: functional
[4] = Antimicrobial activity against Bifidobacterium infantis by Wadsworth agar dilution method in presence of beta-lactamase inhibitor Sulbactam; format: functional, Bifidobacterium longum subsp. infantis; details: Bifidobacterium longum
Hoylesella loescheii = test: Antimicrobial activity against Prevotella loescheii by Wadsworth agar dilution method in presence of beta-lactamase inhibitor Sulbactam; format: functional
[Clostridium] innocuum = Antimicrobial activity against Clostridium innocuum by Wadsworth agar dilution method in presence of beta-lactamase inhibitor Sulbactam; format: functional
Cutibacterium acnes = test: Antimicrobial activity against Propionibacterium acnes by Wadsworth agar dilution method in presence of beta-lactamase inhibitor Sulbactam; format: functional
Peptoniphilus harei = test: Antimicrobial activity against Peptoniphilus harei by Wadsworth agar dilution method in presence of beta-lactamase inhibitor Sulbactam; format: functional
Clostridium nexile = test: Antimicrobial activity against Clostridium nexile by Wadsworth agar dilution method in presence of beta-lactamase inhibitor Sulbactam; format: functional; details: Faecalimonas nexilis
Bifidobacterium bifidum = test: Antimicrobial activity against Bifidobacterium bifidum by Wadsworth agar dilution method in presence of beta-lactamase inhibitor Sulbactam; format: functional
Bacteroides ovatus = test: Antimicrobial activity against Bacteroides ovatus by Wadsworth agar dilution method in presence of beta-lactamase inhibitor Sulbactam; format: functional
[5] = test system: Bifidobacterium adolescentis; test: Antimicrobial activity against Bifidobacterium adolescentis by Wadsworth agar dilution method in presence of beta-lactamase inhibitor Sulbactam; format: functional
[6] = test system: Coprobacillus cateniformis; test: Antimicrobial activity against Coprobacillus cateniformis by Wadsworth agar dilution method in presence of beta-lactamase inhibitor Sulbactam; format: functional
[7] = test system: Desulfovibrio desulfuricans; test: Antimicrobial activity against Desulfovibrio desulfuricans by Wadsworth agar dilution method in presence of beta-lactamase inhibitor Sulbactam; format: functional
Bilophila wadsworthia = test: Antimicrobial activity against Bilophila wadsworthia by Wadsworth agar dilution method in presence of 1% pyruvic acid and beta-lactamase inhibitor Sulbactam; format: functional
Eubacterium saburreum = test: Antimicrobial activity against Eubacterium saburreum by Wadsworth agar dilution method in presence of beta-lactamase inhibitor Sulbactam; format: functional; details: Lachnoanaerobaculum saburreum
Anaerococcus tetradius = test: Antimicrobial activity against Anaerococcus tetradius by Wadsworth agar dilution method in presence of beta-lactamase inhibitor Sulbactam; format: functional
Clostridium cocleatum = test: Antimicrobial activity against Clostridium cocleatum by Wadsworth agar dilution method in presence of beta-lactamase inhibitor Sulbactam; format: functional; details: Thomasclavelia cocleata
Clostridium spiroforme = test: Antimicrobial activity against Clostridium spiroforme by Wadsworth agar dilution method in presence of beta-lactamase inhibitor Sulbactam; format: functional; details: Thomasclavelia spiroformis
Porphyromonas = test: Antimicrobial activity against Porphyromonas sp. by Wadsworth agar dilution method in presence of beta-lactamase inhibitor Sulbactam; format: functional
Clostridium leptum = test: Antimicrobial activity against Clostridium leptum by Wadsworth agar dilution method in presence of beta-lactamase inhibitor Sulbactam; format: functional
Holdemania filiformis = test: Antimicrobial activity against Holdemania filiformis by Wadsworth agar dilution method in presence of beta-lactamase inhibitor Sulbactam; format: functional
Clostridium cadaveris = test: Antimicrobial activity against Clostridium cadaveris by Wadsworth agar dilution method in presence of beta-lactamase inhibitor Sulbactam; format: functional
Clostridium glycolicum = test: Antimicrobial activity against Clostridium glycolicum by Wadsworth agar dilution method in presence of beta-lactamase inhibitor Sulbactam; format: functional; details: Terrisporobacter glycolicus
[8] = test system: Lacticaseibacillus rhamnosus; test: Antimicrobial activity against Lactobacillus rhamnosus by Wadsworth agar dilution method in presence of beta-lactamase inhibitor Sulbactam; format: functional
[9] = test system: Desulfovibrio fairfieldensis; test: Antimicrobial activity against Desulfovibrio fairfieldensis by Wadsworth agar dilution method in presence of beta-lactamase inhibitor Sulbactam; format: functional
[10] = test system: Paraclostridium bifermentans; test: Antimicrobial activity against Clostridium bifermentans by Wadsworth agar dilution method in presence of beta-lactamase inhibitor Sulbactam; format: functional

SMILES: CC1(C)S[C@@H]2[C@H](NC(=O)[C@H](N)c3ccccc3)C(=O)N2[C@H]1C(=O)O [AMPICILLIN]
- MIC (Bifidobacterium dentium): 0.25 µg/mL
- MIC50 (Bifidobacterium dentium): 0.25 µg/mL
- MIC90 (Bifidobacterium dentium): 2 µg/mL
- MIC50 (Prevotella bivia): 0.5 µg/mL
- MIC90 (Prevotella bivia): 4 µg/mL
- MIC (Clostridium sp.): 0.25 µg/mL
- MIC50 (Clostridium sp.): 0.25 µg/mL
- MIC90 (Clostridium sp.): 1 µg/mL
- MIC (Actinomyces viscosus): 0.25 µg/mL
- MIC50 (Actinomyces viscosus): 0.25 µg/mL
- MIC90 (Actinomyces viscosus): 2 µg/mL
- MIC [1]: 0.25 µg/mL
- MIC50 [1]: 0.25 µg/mL
- MIC90 [1]: 2 µg/mL
- MIC (Anaerococcus prevotii): 0.25 µg/mL
- MIC50 (Anaerococcus prevotii): 0.25 µg/mL
- MIC90 (Anaerococcus prevotii): 2 µg/mL
- MIC [2]: 1 µg/mL
- MIC50 [2]: 1 µg/mL
- MIC90 [2]: 16 µg/mL
- MIC (Bifidobacterium breve): 0.25 µg/mL
- MIC50 (Bifidobacterium breve): 0.25 µg/mL
- MIC90 (Bifidobacterium breve): 2 µg/mL
- MIC [3]: 0.25 µg/mL
- MIC50 [3]: 0.25 µg/mL
- MIC90 [3]: 2 µg/mL
- MIC [4]: 0.25 µg/mL
- MIC50 [4]: 0.25 µg/mL
- MIC90 [4]: 2 µg/mL
- MIC50 (Hoylesella loescheii): 0.5 µg/mL
- MIC90 (Hoylesella loescheii): 4 µg/mL
- MIC ([Clostridium] innocuum): 0.25 µg/mL
- MIC50 ([Clostridium] innocuum): 0.25 µg/mL
- MIC90 ([Clostridium] innocuum): 0.5 µg/mL
- MIC (Cutibacterium acnes): 0.25 µg/mL
- MIC50 (Cutibacterium acnes): 0.25 µg/mL
- MIC90 (Cutibacterium acnes): 2 µg/mL
- MIC (Peptoniphilus harei): 0.25 µg/mL
- MIC50 (Peptoniphilus harei): 0.25 µg/mL
- MIC90 (Peptoniphilus harei): 2 µg/mL
- MIC (Clostridium nexile): 0.25 µg/mL
- MIC50 (Clostridium nexile): 0.25 µg/mL
- MIC90 (Clostridium nexile): 1 µg/mL
- MIC (Bifidobacterium bifidum): 0.25 µg/mL
- MIC50 (Bifidobacterium bifidum): 0.25 µg/mL
- MIC90 (Bifidobacterium bifidum): 2 µg/mL
- MIC50 (Bacteroides ovatus): 8 µg/mL
- MIC90 (Bacteroides ovatus): 32 µg/mL
- MIC [5]: 0.25 µg/mL
- MIC50 [5]: 0.25 µg/mL
- MIC90 [5]: 2 µg/mL
- MIC [6]: 0.25 µg/mL
- MIC50 [6]: 0.25 µg/mL
- MIC90 [6]: 2 µg/mL
- MIC50 [7]: 8 µg/mL
- MIC90 [7]: 8 µg/mL
- MIC50 (Bilophila wadsworthia): 2 µg/mL
- MIC90 (Bilophila wadsworthia): 16 µg/mL
- MIC (Eubacterium saburreum): 0.25 µg/mL
- MIC50 (Eubacterium saburreum): 0.25 µg/mL
- MIC90 (Eubacterium saburreum): 2 µg/mL
- MIC (Anaerococcus tetradius): 0.25 µg/mL
- MIC50 (Anaerococcus tetradius): 0.25 µg/mL
- MIC90 (Anaerococcus tetradius): 2 µg/mL
- MIC (Clostridium cocleatum): 0.25 µg/mL
- MIC50 (Clostridium cocleatum): 0.25 µg/mL
- MIC90 (Clostridium cocleatum): 1 µg/mL
- MIC (Clostridium spiroforme): 0.25 µg/mL
- MIC50 (Clostridium spiroforme): 0.25 µg/mL
- MIC90 (Clostridium spiroforme): 1 µg/mL
- MIC (Porphyromonas): 0.25 µg/mL
- MIC50 (Porphyromonas): 0.25 µg/mL
- MIC90 (Porphyromonas): 0.5 µg/mL
- MIC (Clostridium leptum): 0.25 µg/mL
- MIC50 (Clostridium leptum): 0.25 µg/mL
- MIC90 (Clostridium leptum): 1 µg/mL
- MIC (Holdemania filiformis): 0.25 µg/mL
- MIC50 (Holdemania filiformis): 0.25 µg/mL
- MIC90 (Holdemania filiformis): 2 µg/mL
- MIC (Clostridium cadaveris): 0.25 µg/mL
- MIC50 (Clostridium cadaveris): 0.25 µg/mL
- MIC90 (Clostridium cadaveris): 1 µg/mL
- MIC (Clostridium glycolicum): 0.25 µg/mL
- MIC50 (Clostridium glycolicum): 0.25 µg/mL
- MIC90 (Clostridium glycolicum): 1 µg/mL
- MIC [8]: 0.25 µg/mL
- MIC50 [8]: 0.25 µg/mL
- MIC90 [8]: 2 µg/mL
- MIC50 [9]: 4 µg/mL
- MIC90 [9]: 32 µg/mL
- MIC [10]: 0.25 µg/mL
- MIC50 [10]: 0.25 µg/mL
- MIC90 [10]: 1 µg/mL
